From the supplement of paper PMC11061612

Columns and labels:
[1] = compound: CC(=O)O[C@H]1C(=O)[C@@]2(C)[C@H]([C@H](OC(=O)c3ccccc3)[C@]3(O)C[C@H](OC(=O)[C@H](O)[C@@H](NC(=O)c4ccccc4)c4ccccc4)C(C)=C1C3(C)C)[C@]1(OC(C)=O)CO[C@@H]1C[C@@H]2O [Paclitaxel]; conditions: max 3 µM
Summary of the method: (§1)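 Cancer cell lines were seeded in 1536-well plates in 7.5 μl DMEM/F12 or RPMI with 10% FBS, held 24 hours at 37°C and 5% CO2, then dosed for 72 hours (final DMSO typically 0.2%). Viability was read by CellTiter-Glo 2.0 luminescence and scaled between blank-well and DMSO-well means. The single-agent IC50 comes from dose responses fitted to a two-parameter logistic curve with a non-linear mixed effects model.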

[2] = compound: CN(CC[C@H](CSC1=CC=CC=C1)NC2=C(C=C(C=C2)S(=O)(=O)NC(=O)C3=CC=C(C=C3)N4CCC(CC4)[C@H](C5=CC=CC=C5C6=CC=C(C=C6)Cl)O)S(=O)(=O)C(F)(F)F)CCO [AZD4320]; conditions: max 1 µM
Summary of the method: as §1

[3] = compound: O=c1[nH]cc(F)c(=O)[nH]1 [5-Fluorouracil]; conditions: max 20 µM
Summary of the method: as §1

[4] = compound: C=CCn1c(=O)c2cnc(Nc3ccc(N4CCN(C)CC4)cc3)nc2n1-c1cccc(C(C)(C)O)n1 [AZD1775]; conditions: max 3 µM
Summary of the method: as §1

[5] = compound: NC1(c2ccc(-c3nc4ccn5c(=O)[nH]nc5c4cc3-c3ccccc3)cc2)CCC1 [MK-2206]; conditions: max 10 µM
Summary of the method: as §1

[6] = compound: CN(C)CCCOc1ccc(-c2ccc3ncc4c(c3c2)n(C2CCOCC2)c(=O)n4C)cn1 [AZD0156]; conditions: max 3 µM
Summary of the method: as §1

[7] = compound: COc1cccc2c1C(=O)c1c(O)c3c(c(O)c1C2=O)C[C@@](O)(C(=O)CO)C[C@@H]3O[C@H]1C[C@H](N)[C@H](O)[C@H](C)O1 [Doxorubicin]; conditions: max 1 µM
Summary of the method: as §1

[8] = compound: Cc1c2c(nn1C)CSCc1cc(n(C)n1)CSc1cc(c3ccccc3c1)OCCCc1c(C(=O)O)n(C)c3c-2c(Cl)ccc13 [AZD5991]; conditions: max 1 µM
Summary of the method: as §1

[9] = compound: C[C@@H](c1ccc2nccn2c1)n1nnc2ncc(-c3cnn(C)c3)nc21 [Savolitinib]; conditions: max 1 µM
Summary of the method: as §1

[10] = compound: CCc1c2c(nc3ccc(O)cc13)-c1cc3c(c(=O)n1C2)COC(=O)[C@]3(O)CC [SN-38]; conditions: max 0.3 µM
Summary of the method: as §1

[11] = compound: Nc1ccn([C@@H]2O[C@H](CO)[C@@H](O)C2(F)F)c(=O)n1 [Gemcitabine]; conditions: max 0.3 µM
Summary of the method: as §1

[12] = compound: C[C@@H](Oc1cc(-c2cnn(C3CCNCC3)c2)cnc1N)c1c(Cl)ccc(F)c1Cl [Crizotinib]; conditions: max 10 µM
Summary of the method: as §1

[13] = compound: CC1=CN2[C@@H](C1)C=NC3=CC(=C(C=C3C2=O)OC)OCCCCCOC4=C(C=C5C(=C4)N=C[C@@H]6CC(=CN6C5=O)C)OC [SG3199]; conditions: max 0.001 µM
Summary of the method: as §1

[14] = compound: CC1(C)CCC(CN2CCN(c3ccc(C(=O)NS(=O)(=O)c4ccc(NCC5CCOCC5)c([N+](=O)[O-])c4)c(Oc4cnc5[nH]ccc5c4)c3)CC2)=C(c2ccc(Cl)cc2)C1 [Venetoclax]; conditions: max 1 µM
Summary of the method: as §1

[15] = compound: CC(=O)c1c(C)c2cnc(Nc3ccc(N4CCNCC4)cn3)nc2n(C2CCCC2)c1=O [Palbociclib]; conditions: max 10 µM
Summary of the method: as §1

[16] = compound: COc1cccc(OCCCN)c1-c1cc(Nc2cnc(C#N)cn2)n[nH]1 [Prexasertib]; conditions: max 1 µM
Summary of the method: as §1

[17] = compound: COc1cc([C@@H]2c3cc4c(cc3[C@@H](O[C@@H]3O[C@@H]5CO[C@@H](C)O[C@H]5[C@H](O)[C@H]3O)[C@H]3COC(=O)[C@H]23)OCO4)cc(OC)c1O [Etoposide]; conditions: max 10 µM
Summary of the method: as §1

[18] = compound: CC(=O)Nc1cccc(-n2c(=O)n(C3CC3)c(=O)c3c(Nc4ccc(I)cc4F)n(C)c(=O)c(C)c32)c1 [Trametinib]; conditions: max 1 µM
Summary of the method: as §1

[19] = compound: C1CC(C1)(C(=O)[O-])C(=O)[O-].N.N.[Pt+2] [Carboplatin]; conditions: max 10 µM
Summary of the method: as §1

[20] = compound: Cc1cc2ncnn2cc1Nc1ncc2c(n1)n(C1CCOCC1)c(=O)n2C [AZD7648]; conditions: max 10 µM
Summary of the method: as §1

[21] = compound: COc1cc2ncnc(Nc3ccc(F)c(Cl)c3)c2cc1OCCCN1CCOCC1 [Gefitinib]; conditions: max 10 µM
Summary of the method: as §1

[22] = compound: O=C(c1cc(Cc2n[nH]c(=O)c3ccccc23)ccc1F)N1CCN(C(=O)C2CC2)CC1 [Olaparib]; conditions: max 10 µM
Summary of the method: as §1

[23] = compound: COc1cc(Nc2ncc3c(n2)-c2ccc(Cl)cc2C(c2c(F)cccc2OC)=NC3)ccc1C(=O)O [Alisertib]; conditions: max 10 µM
Summary of the method: as §1

[24] = compound: CC(C)n1c(=O)n(C)c2cnc3cc(F)c(-c4ccc(OCCCN5CCCCC5)nc4)cc3c21 [AZD1390]; conditions: max 0.3 µM
Summary of the method: as §1

[25] = compound: O=C(Nc1ccc2[nH]nc(-c3ccncc3)c2c1)[C@@H]1CCN(CC(=O)N2CCN(c3ccc(-c4ncccn4)cc3)CC2)C1; conditions: max 5 µM
Summary of the method: as §1

[26] = compound: CS(=O)(=O)CCNCc1ccc(-c2ccc3ncnc(Nc4ccc(OCc5cccc(F)c5)c(Cl)c4)c3c2)o1 [Lapatinib]; conditions: max 10 µM
Summary of the method: as §1

[27] = compound: C[C@@H](Nc1cc(F)cc(F)c1)c1cc(C(=O)N(C)C)cc2c(=O)cc(N3CCOCC3)oc12 [AZD8186]; conditions: max 10 µM
Summary of the method: as §1

[28] = compound: N#Cc1cnc(Nc2cc(NC[C@H]3CNCCO3)c(C(F)(F)F)cn2)cn1 [SRA737]; conditions: max 10 µM
Summary of the method: as §1

[29] = compound: Cc1nc(-c2cn3c(n2)-c2ccc(-c4cnn(C(C)(C)C(N)=O)c4)cc2OCC3)n(C(C)C)n1 [Taselisib]; conditions: max 10 µM
Summary of the method: as §1

[30] = compound: C[C@@H]1COCCN1C2=NC(=NC(=C2)C3(CC3)[S@](=N)(=O)C)C4=C5C=CNC5=NC=C4 [AZD6738]; conditions: max 10 µM
Summary of the method: as §1

[31] = compound: CC1=C(C(=CC=C1)Cl)NC(=O)C2=CN=C(S2)NC3=CC(=NC(=N3)C)N4CCN(CC4)CCO [Dasatinib]; conditions: max 2 µM
Summary of the method: as §1

[32] = compound: Cn1cnc2c(F)c(Nc3ccc(Br)cc3Cl)c(C(=O)NOCCO)cc21 [Selumetinib]; conditions: max 10 µM
Summary of the method: as §1

[33] = compound: C1CN(CCC1(C(=O)N[C@@H](CCO)C2=CC=C(C=C2)Cl)N)C3=NC=NC4=C3C=CN4 [AZD5363]; conditions: max 10 µM
Summary of the method: as §1

[34] = compound: COc1nnc2ccc(N3CCC(c4ccc(OCCN5CCN(C)C(=O)[C@H]5C)cc4)CC3)nn12 [AZD5153]; conditions: max 1 µM
Summary of the method: as §1

[35] = compound: CCN(CCO)CCCOc1ccc2c(Nc3cc(CC(=O)Nc4cccc(F)c4)[nH]n3)ncnc2c1 [AZD2811]; conditions: max 1 µM
Summary of the method: as §1

OCI-AML2 (Acute Myeloid Leukemia)
IC50, cell viability 72 h [1]: 4.45 nM | IC50, cell viability 72 h [2]: 6.33 nM | IC50, cell viability 72 h [3]: 1200 nM | IC50, cell viability 72 h [4]: 358 nM | IC50, cell viability 72 h [5]: > 10000 nM | IC50, cell viability 72 h [6]: > 3000 nM | IC50, cell viability 72 h [7]: 12.3 nM | IC50, cell viability 72 h [8]: 193 nM | IC50, cell viability 72 h [9]: > 1000 nM | IC50, cell viability 72 h [10]: 4.7 nM | IC50, cell viability 72 h [11]: 7.97 nM | IC50, cell viability 72 h [12]: 2780 nM | IC50, cell viability 72 h [13]: > 1 nM | IC50, cell viability 72 h [14]: 7.92 nM | IC50, cell viability 72 h [15]: 3170 nM | IC50, cell viability 72 h [16]: 12.4 nM | IC50, cell viability 72 h [17]: 503 nM | IC50, cell viability 72 h [18]: < 1 nM | IC50, cell viability 72 h [19]: > 10000 nM | IC50, cell viability 72 h [20]: > 10000 nM | IC50, cell viability 72 h [21]: > 10000 nM | IC50, cell viability 72 h [22]: 6690 nM | IC50, cell viability 72 h [23]: 1340 nM | IC50, cell viability 72 h [24]: > 300 nM | IC50, cell viability 72 h [25]: 51.5 nM | IC50, cell viability 72 h [26]: > 10000 nM | IC50, cell viability 72 h [27]: > 10000 nM | IC50, cell viability 72 h [28]: 1170 nM | IC50, cell viability 72 h [29]: > 10000 nM | IC50, cell viability 72 h [30]: 965 nM | IC50, cell viability 72 h [31]: > 2000 nM | IC50, cell viability 72 h [32]: 36.6 nM | IC50, cell viability 72 h [33]: 7580 nM | IC50, cell viability 72 h [34]: 43 nM | IC50, cell viability 72 h [35]: 341 nM

U-266 (Plasma Cell Myeloma)
IC50, cell viability 72 h [1]: 10.2 nM | IC50, cell viability 72 h [2]: 841 nM | IC50, cell viability 72 h [3]: > 20000 nM | IC50, cell viability 72 h [4]: 1030 nM | IC50, cell viability 72 h [5]: > 10000 nM | IC50, cell viability 72 h [6]: > 3000 nM | IC50, cell viability 72 h [7]: > 1000 nM | IC50, cell viability 72 h [8]: 219 nM | IC50, cell viability 72 h [9]: > 1000 nM | IC50, cell viability 72 h [10]: > 300 nM | IC50, cell viability 72 h [11]: 131 nM | IC50, cell viability 72 h [12]: > 10000 nM | IC50, cell viability 72 h [13]: > 1 nM | IC50, cell viability 72 h [14]: > 1000 nM | IC50, cell viability 72 h [15]: > 10000 nM | IC50, cell viability 72 h [16]: 50.6 nM | IC50, cell viability 72 h [17]: > 10000 nM | IC50, cell viability 72 h [18]: 225 nM | IC50, cell viability 72 h [19]: > 10000 nM | IC50, cell viability 72 h [20]: > 10000 nM | IC50, cell viability 72 h [21]: > 10000 nM | IC50, cell viability 72 h [22]: > 10000 nM | IC50, cell viability 72 h [23]: 9540 nM | IC50, cell viability 72 h [24]: > 300 nM | IC50, cell viability 72 h [25]: 4960 nM | IC50, cell viability 72 h [26]: > 10000 nM | IC50, cell viability 72 h [27]: > 10000 nM | IC50, cell viability 72 h [28]: > 10000 nM | IC50, cell viability 72 h [29]: > 10000 nM | IC50, cell viability 72 h [30]: > 10000 nM | IC50, cell viability 72 h [31]: > 2000 nM | IC50, cell viability 72 h [32]: > 10000 nM | IC50, cell viability 72 h [33]: > 10000 nM | IC50, cell viability 72 h [34]: > 1000 nM | IC50, cell viability 72 h [35]: > 1000 nM
